Tests used:
[1] = biological target: CDK7/Cyclin H/MAT1 trimeric complex (Homo sapiens, UniProt P50613); assay: CDK7 kinase assay, Caliper/LabChip EZ Reader (Biortus Biosciences); type: biochemical; details: CDK7/Cyclin H/MAT1 10 nM, ATP 2 mM, FAM-CDK7tide 2 μM, 30 min incubation, read-out: CDK7 Inhibition (IC50)
Description: Compounds of the invention were further assayed for CDK7 activity at Biortus Biosciences (Jiangyin, Jiangsu Province, P.R. of China) using a CDK7 kinase assay developed with a Caliper/LabChip EZ Reader (Perkin Elmer, Waltham, Mass.). […] The incubation period was chosen such that the total fraction of phosphorylated peptide product produced was <20% for the uninhibited kinase.

[2] = tested on: A673 cells; assay: Inhibition of proliferation of A673 cells (CyQUANT, 72 hour); type: cell-based, human; details: 72 hour proliferation
Description: A673 cells are a cell line derived from human muscle Ewing's sarcoma. Representative compounds of the invention were tested at different concentrations (from 4 μM to 126.4 pM; 0.5 log serial dilutions) for their ability to inhibit the proliferation of A673 cells. Known CDK inhibitors flavopiridol and triptolide were used as positive controls. Cells were grown in Dulbecco's Modified Eagle's Medium, +10% FBS+1 mM Sodium Pyruvate. The cells were cultured at 37° C. in a humidified chamber in the presence of 5% CO2. Proliferation assays were conducted over a 72 hour time period. CyQUANT® (Life Technologies, Chicago, Ill. USA) was used to assess the anti-proliferative effects of the compounds following manufacturer's directions and utilizing the reagents supplied with the CyQUANT® kit. In this table, “A” represents an IC50 of less than 500 nM; “B” an IC50 of between 500 nM and 5 μM; and “C” an IC50 of greater than 5 μM.

[3] = biological target: T1, CDK7 (Homo sapiens, UniProt P50613); assay: CDK7 kinase activity, Adapta kinase assay (Life Technologies); type: biochemical; details: Adapta kinase assay at Life Technologies; 10 μM down to 0.514 nM, 3-fold serial dilutions; read-out: CDK7 Inhibition (IC50)
T1 construct: purchased Life Technologies (Adapta kinase assay service)
Description: Compounds of the invention were assayed for CDK7 activity at Life Technologies™ (Grand Island, N.Y.) using their commercially available Adapta® kinase assay services. Compounds were tested at concentrations ranging from 10 μM down to 0.514 nM in a series of 3-fold serial dilutions. Details of these assays, including substrates used, are available on the Life Technologies web site (http://www.lifetechnologies.com/us/en/home/life-science/drug-discovery/target-and-lead-identification-and-validation/kinasebiology/kinase-activity-assays.html).

[4] = tested on: Jurkat cells; assay: Inhibition of proliferation of Jurkat cells (CellTiter-Glo, 72 hour); type: cell-based, human; details: 10 μM to 316 pM
Description: Jurkat cells are a cell line established from a human T cell leukemia. Representative compounds of the invention were tested at different concentrations (from 10 μM to 316 pM; 0.5 log serial dilutions) for their ability to inhibit the proliferation of Jurkat cells. Known CDK inhibitors flavopiridol and triptolide were used as positive controls. Cells were grown in RPMI 1640+10% FBS+1% Glutamax. The cells were supplemented with FBS (Life Technologies) and 100 U·mL^− penicillin, 100 μg·mL^− streptomycin (Invitrogen) and cultured at 37° C. in a humidified chamber in the presence of 5% CO2. Proliferation assays were conducted over a 72 hour time period. CellTiter-Glo® (Promega Corporation, Madison, Wis. USA) was used to assess the anti-proliferative effects of the compounds following manufacturer's directions and utilizing the reagents supplied with the CellTiter-Glo® kit. In this table, “A” represents an IC50 of less than 500 nM; “B” an IC50 of between 500 nM and 5 μM; and “C” an IC50 of greater than 5 μM.

Chain of CDK7/Cyclin H/MAT1 trimeric complex (P50613 whole entry): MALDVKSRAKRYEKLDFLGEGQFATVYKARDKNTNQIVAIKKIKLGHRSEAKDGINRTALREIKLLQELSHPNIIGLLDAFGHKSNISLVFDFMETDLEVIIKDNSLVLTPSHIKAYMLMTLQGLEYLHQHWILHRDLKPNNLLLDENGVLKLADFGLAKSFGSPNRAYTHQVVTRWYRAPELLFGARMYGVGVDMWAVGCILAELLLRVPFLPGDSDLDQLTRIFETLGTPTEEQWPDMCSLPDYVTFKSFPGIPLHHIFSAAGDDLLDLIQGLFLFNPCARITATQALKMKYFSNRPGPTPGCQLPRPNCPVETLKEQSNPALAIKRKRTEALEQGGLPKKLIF
Chain of CDK7/Cyclin H/MAT1 trimeric complex (P51946 whole entry partner): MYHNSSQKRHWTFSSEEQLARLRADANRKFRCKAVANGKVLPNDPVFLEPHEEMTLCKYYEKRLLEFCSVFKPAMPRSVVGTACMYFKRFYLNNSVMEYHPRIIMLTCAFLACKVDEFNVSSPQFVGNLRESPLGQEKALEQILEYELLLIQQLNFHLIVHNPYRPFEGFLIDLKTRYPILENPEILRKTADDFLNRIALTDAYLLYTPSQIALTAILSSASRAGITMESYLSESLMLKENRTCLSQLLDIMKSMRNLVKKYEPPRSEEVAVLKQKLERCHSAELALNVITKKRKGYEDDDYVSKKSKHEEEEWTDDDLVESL
Chain of CDK7/Cyclin H/MAT1 trimeric complex (P51948 whole entry partner): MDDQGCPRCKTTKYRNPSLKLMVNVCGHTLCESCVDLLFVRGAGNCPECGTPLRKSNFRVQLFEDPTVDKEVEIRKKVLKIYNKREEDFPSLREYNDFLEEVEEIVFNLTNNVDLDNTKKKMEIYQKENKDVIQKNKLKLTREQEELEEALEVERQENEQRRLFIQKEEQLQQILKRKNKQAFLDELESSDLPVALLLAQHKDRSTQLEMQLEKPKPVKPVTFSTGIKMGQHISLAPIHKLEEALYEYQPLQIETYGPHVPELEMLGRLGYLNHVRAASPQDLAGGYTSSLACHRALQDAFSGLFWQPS
T1 sequence (P50613 whole entry): as the sequence (P50613 whole entry) above
T1 sequence (P51946 whole entry partner): as the sequence (P51946 whole entry partner) above
T1 sequence (P51948 whole entry partner): as the sequence (P51948 whole entry partner) above

With `C=CC(=O)N[C@H]1CCN([C@H]2CCC[C@@H](Nc3ncc(Cl)c(-c4c[nH]c5ccccc45)n3)C2)C1` [Compound 370, N—((S)-1-((1S,3R)-3-((5-chloro-4-(1H-indol-3-yl)pyrimidin-2-yl)amino)cyclohexyl)pyrrolidin-3-yl)acrylamide] the IC50 [1] was less than 100 nM and the IC50 ([2]; Homo sapiens) was less than 500 nM.

With `CCc1cnc(N[C@@H]2CCC[C@](C)(NCc3ccc(NC(=O)/C=C/CN(C)C)cn3)C2)nc1-c1c[nH]c2ccccc12` [Compound 411, (E)-4-(dimethylamino)-N-[6-[[[(1S,3R)-3-[[5-ethyl-4-(1H-indol-3-yl)pyrimidin-2-yl]amino]-1-methylcyclohexyl]amino]methyl]-3-pyridyl]but-2-enamide] the IC50 [1] was less than 100 nM and the IC50 ([2]; Homo sapiens) was less than 500 nM.

Compound `C=CC(=O)NC1CN(C2CCCC(Nc3ncc(Cl)c(-c4c[nH]c5ccccc45)n3)C2)C1` (mixture of isomers) [Compound 255] has an IC50 [1] of less than 100 nM and an IC50 [2] of less than 500 nM.

`C=CC(=O)Nc1ccc(CN[C@H]2CCC[C@@H](Nc3ncc(Cl)c(-c4c[nH]c5ccccc45)n3)C2)nc1` [Compound 258] showed an IC50 [1] of less than 100 nM and an IC50 ([2]; Homo sapiens) of less than 500 nM.

For `C=CC(=O)Nc1cnc(CN[C@H]2CCC[C@@H](Nc3ncc(Cl)c(-c4n[nH]c5ccccc45)n3)C2)nc1` [compound 405], the IC50 [1] was less than 100 nM and the IC50 [2] was less than 500 nM.

For `CN(C)C/C=C/C(=O)Nc1ccc(CN[C@@]2(C)CCC[C@@H](Nc3ncc(Cl)c(-c4c[nH]c5ccccc45)n3)C2)nc1` [Compound 294, (E)-N-(6-(((1S,3R)-3-(5-chloro-4-(1H-indol-3-yl)pyrimidin-2-ylamino)-1-methylcyclohexylamino)methyl)pyridin-3-yl)-4-(dimethylamino)but-2-enamide], the IC50 [1] was less than 100 nM and the IC50 ([2]; Homo sapiens) was less than 500 nM.

`CN(C)C/C=C/C(=O)Nc1ccc(C(=O)N[C@H]2CCC[C@@H](Nc3ncc(Cl)c(C4C(=O)Nc5ccccc54)n3)C2)nc1` (stereo partly drawn) [Compound 282, N-((1S,3R)-3-(5-Chloro-4-(2-oxoindolin-3-yl)pyrimidin-2-ylamino)cyclohexyl)-5-((E)-4-(dimethylamino)but-2-enamido)picolinamide] showed an IC50 [1] of 100 to 1000 nM and an IC50 ([2]; Homo sapiens) of less than 500 nM.

Work on `CN(C)C/C=C/C(=O)Nc1ccc(C(=O)N[C@H]2CCC[C@@H](Nc3ncc(Cl)c(-c4cccc5[nH]ccc45)n3)C2)nc1` [Compound 264, N-((1S,3R)-3-((5-chloro-4-(1H-indol-4-yl)pyrimidin-2-yl)amino)cyclohexyl)-5-((E)-4-(dimethylamino)but-2-enamido)picolinamide] yielded an IC50 [1] of less than 100 nM and an IC50 ([2]; Homo sapiens) of less than 500 nM.

`CN(C)C/C=C/C(=O)N1CC(F)(F)C[C@H]1C(=O)N[C@H]1CCC[C@@H](Nc2ncc(Cl)c(-c3c[nH]c4ccccc34)n2)C1` [compound 394] showed an IC50 [1] of less than 100 nM and an IC50 [2] of less than 500 nM.

In the case of `C=CC(=O)NC1CC2CCC(C1)N2C1CCCC(Nc2ncc(Cl)c(-c3c[nH]c4ccccc34)n2)C1` (mixture of isomers) [Compound 259], the IC50 [1] is reported as 100 to 1000 nM and the IC50 [2] is reported as less than 500 nM.

In the case of `CN(C)C/C=C/C(=O)Nc1ccc(C(=O)N[C@@]2(C)CCC[C@@H](Nc3ncc(Cl)c(-c4c[nH]c5ccccc45)n3)C2)nc1` [Compound 267, N-((1S,3R)-3-(5-chloro-4-(1H-indol-3-yl)pyrimidin-2-ylamino)-1-methylcyclohexyl)-5-((E)-4-(dimethylamino)but-2-enamido)picolinamide], the IC50 [1] is reported as less than 100 nM and the IC50 ([2]; Homo sapiens) is reported as less than 500 nM.

`C=CC(=O)N1CCN([C@H]2CCC[C@@H](Nc3ncc(Cl)c(-c4c[nH]c5c(OC)cccc45)n3)C2)CC1` [compound 395] gave an IC50 [1] of 100 to 1000 nM and an IC50 [2] of less than 500 nM.

`CN(C)C/C=C/C(=O)Nc1ccc(C(=O)N[C@@]2(C)CCC[C@@H](Nc3ncc(C(F)(F)F)c(-c4c[nH]c5ccccc45)n3)C2)nc1` [Compound 399, 5-[[(E)-4-(dimethylamino)but-2-enoyl]amino]-N-[(1S,3R)-3-[[4-(1H-indol-3-yl)-5-(trifluoromethyl)pyrimidin-2-yl]amino]-1-methyl-cyclohexyl]pyridine-2-carboxamide] was tested, and the IC50 [1] was less than 100 nM and the IC50 ([2]; Homo sapiens) was less than 500 nM.

`CN(C)C/C=C/C(=O)Nc1ccc(CN(C)[C@H]2CCC[C@@H](Nc3ncc(Cl)c(-c4c[nH]c5ccccc45)n3)C2)nc1` [Compound 377, (E)-N-(6-((((1S,3R)-3-((5-chloro-4-(1H-indol-3-yl)pyrimidin-2-yl)amino)cyclohexyl)(methyl)amino)methyl)pyridin-3-yl)-4-(dimethylamino)but-2-enamide] gave an IC50 [1] of less than 100 nM and an IC50 ([2]; Homo sapiens) of less than 500 nM.

In the case of `C=CC(=O)N1CCN([C@H]2CCC[C@@H](Nc3ncc(Cl)c(-c4n[nH]c5ccccc45)n3)C2)CC1` [compound 388], the IC50 [1] is reported as 100 to 1000 nM and the IC50 [2] is reported as less than 500 nM.

`CN(C)C/C=C/C(=O)N1CCC[C@@H](NCc2ccc(Nc3ncc(Cl)c(-c4c[nH]c5ccccc45)n3)cc2)C1` [Compound 415, (R,E)-1-(3-((4-((5-chloro-4-(1H-indol-3-yl)pyrimidin-2-yl)amino)benzyl)amino)piperidin-1-yl)-4-(dimethylamino)but-2-en-1-One] showed an IC50 [1] of less than 100 nM and an IC50 ([2]; Homo sapiens) of less than 500 nM.

Compound `CN(C)C/C=C/C(=O)N1CCN([C@H]2CCC[C@@H](Nc3ncc(Cl)c(C4C(=O)Nc5ccccc54)n3)C2)CC1` (stereo partly drawn) [Compound 293, 3-(5-chloro-2-(((1R,3S)-3-(4-((E)-4-(dimethylamino)but-2-enoyl)piperazin-1-yl)cyclohexyl)amino)pyrimidin-4-yl)indolin-2-One] has an IC50 [1] of 100 to 1000 nM and an IC50 ([2]; Homo sapiens) of less than 500 nM.

For `C=CC(=O)N1CCN([C@H]2CCC[C@@H](Nc3ncc(Cl)c(-c4c[nH]c5ccccc45)n3)C2)C(=O)C1` [compound 410], the IC50 [1] was less than 100 nM and the IC50 [2] was less than 500 nM.

For `C=CC(=O)N1CCN([C@H]2CCC[C@@H](Nc3ncc(Cl)c(-c4nnc5ccccn45)n3)C2)CC1` [Compound 344, 1-(4-((1S,3R)-3-((4-([1,2,4]triazolo[4,3-a]pyridin-3-yl)-5-chloropyrimidin-2-yl)amino)cyclohexyl)piperazin-1-yl)prop-2-en-1-One], the IC50 [1] was less than 100 nM and the IC50 ([2]; Homo sapiens) was less than 500 nM.

Work on `CN(C)C/C=C/C(=O)N(C)c1ccc(CN[C@H]2CCC[C@@H](Nc3ncc(Cl)c(-c4c[nH]c5ccccc45)n3)C2)nc1` [Compound 390, (E)-N-(6-((((1S,3R)-3-((5-chloro-4-(1H-indol-3-yl)pyrimidin-2-yl)amino)cyclohexyl)amino)methyl)pyridin-3-yl)-4-(dimethylamino)-N-methylbut-2-enamide] yielded an IC50 [1] of less than 100 nM and an IC50 ([2]; Homo sapiens) of less than 500 nM.

Work on `CN(C)C/C=C/C(=O)N1CCCC(N2CC(Nc3ncc(Cl)c(-c4c[nH]c5ccccc45)n3)C2)C1` (centres unmarked) [compound 389] yielded an IC50 [1] greater than 1000 nM and an IC50 [2] of less than 500 nM.

`CCc1cnc(N[C@@H]2CCC[C@H](NC(=O)c3ccc(NC(=O)/C=C/CN(C)C)cn3)C2)nc1-c1c[nH]c2ccccc12` [Compound 262, 5-[[(E)-4-(dimethylamino)but-2-enoyl]amino]-N-[(1S,3R)-3-[[5-ethyl-4-(1H-indol-3-yl)pyrimidin-2-yl]amino]cyclohexyl]pyridine-2-carboxamide] showed an IC50 [1] of less than 100 nM and an IC50 ([2]; Homo sapiens) of less than 500 nM.

Work on `C=CC(=O)N1CCC(CNC2CCC(Nc3ncc(Cl)c(-c4c[nH]c5ccccc45)n3)CC2)CC1` (centres unmarked) [compound 184] yielded an IC50 [3] of 100 to 1000 nM, an IC50 [4] greater than 5000 nM and an IC50 [2] greater than 5000 nM.

For `C=CC(=O)N1CCCC(CN(C(=O)C=C)C2CCC(Nc3ncc(Cl)c(-c4c[nH]c5ccccc45)n3)CC2)C1` (centres unmarked) [Compound 191-1, N-[4-[[5-chloro-4-(1H-indol-3-yl)pyrimidin-2-yl]amino]cyclohexyl]-N-[(1-prop-2-enoyl-3-piperidyl)methyl]prop-2-enamide], the IC50 [3] was less than 100 nM, the IC50 ([4]; Homo sapiens) was less than 500 nM and the IC50 ([2]; Homo sapiens) was 500 to 5000 nM.
